According to the supplement of paper PMC10307832:

Tests used:
Test in all cases: relative viability (nuclei count vs DMSO), 5 days (fraction); higher = more cells survive
Zebularine + Pemetrexed = compound: O=c1ncccn1[C@@H]1O[C@H](CO)[C@@H](O)[C@H]1O [Zebularine] + Nc1nc2[nH]cc(CCc3ccc(C(=O)N[C@@H](CCC(=O)O)C(=O)O)cc3)c2c(=O)[nH]1 [Pemetrexed] (partner 0.2 µM)
In short: (§1)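 Nuclei were stained with Hoechst during a one-step fixation (final 0.05% Triton X-100, 1% formaldehyde, 1 ug/ml Hoechst) carried out 5 days after dosing, then counted on 4× images. The cells, lung cancer lines in 1536-well plates, had been dosed by pin tool the day after seeding with one drug alone or a fixed anchor-drug dose plus five library-drug doses (not always all listed) in √10 steps. Relative viability is the nuclei count in treated wells divided by that in vehicle wells, and each value is the median of duplicate plates.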

Zebularine + OSI-027 = compound: O=c1ncccn1[C@@H]1O[C@H](CO)[C@@H](O)[C@H]1O [Zebularine] + COc1cccc2cc(-c3nc([C@H]4CC[C@H](C(=O)O)CC4)n4ncnc(N)c34)[nH]c12 [OSI-027] (partner 0.5 µM)
In short: as §1

Zebularine + Lapatinib = compound: O=c1ncccn1[C@@H]1O[C@H](CO)[C@@H](O)[C@H]1O [Zebularine] + CS(=O)(=O)CCNCc1ccc(-c2ccc3ncnc(Nc4ccc(OCc5cccc(F)c5)c(Cl)c4)c3c2)o1 [Lapatinib] (partner 2 µM)
In short: as §1

BI-D1870 + Foretinib = compound: CC(C)CCN1c2nc(Nc3cc(F)c(O)c(F)c3)ncc2N(C)C(=O)C1C [BI-D1870] + COc1cc2c(Oc3ccc(NC(=O)C4(C(=O)Nc5ccc(F)cc5)CC4)cc3F)ccnc2cc1OCCCN1CCOCC1 [Foretinib] (partner 0.25 µM)
In short: as §1

Cell Line	relative viability (Zebularine + Pemetrexed; first compound 1 µM)	relative viability (Zebularine + Pemetrexed; first compound 3.162 µM)	relative viability (Zebularine + Pemetrexed; first compound 10 µM)	relative viability (Zebularine + Pemetrexed; first compound 31.62 µM)	relative viability (Zebularine + Pemetrexed; first compound 100 µM)	relative viability (Zebularine + OSI-027; first compound 1 µM)	relative viability (Zebularine + OSI-027; first compound 3.162 µM)	relative viability (Zebularine + OSI-027; first compound 10 µM)	relative viability (Zebularine + OSI-027; first compound 31.62 µM)	relative viability (Zebularine + OSI-027; first compound 100 µM)	relative viability (Zebularine + Lapatinib; first compound 1 µM)	relative viability (Zebularine + Lapatinib; first compound 3.162 µM)	relative viability (Zebularine + Lapatinib; first compound 10 µM)	relative viability (Zebularine + Lapatinib; first compound 31.62 µM)	relative viability (Zebularine + Lapatinib; first compound 100 µM)	relative viability (BI-D1870 + Foretinib; first compound 0.04 µM)	relative viability (BI-D1870 + Foretinib; first compound 0.1265 µM)	relative viability (BI-D1870 + Foretinib; first compound 0.4 µM)	relative viability (BI-D1870 + Foretinib; first compound 1.265 µM)	relative viability (BI-D1870 + Foretinib; first compound 4 µM)
NCI-H1563	0.896	0.717	0.689	0.728	0.791	0.81	0.776	0.572	0.89	0.76	1	0.782	0.907	1.13	0.946	0.957	0.927	0.939	1.04	0.967
NCI-H1650	0.381	0.35	0.387	0.523	0.33	0.842	0.663	0.285	0.834	0.416	0.878	0.618	–	1.08	0.86	1.31	0.756	1.08	1.18	1.27
NCI-H1651	0.631	0.556	0.542	0.563	0.347	0.735	0.69	0.549	0.716	0.447	0.917	1.07	–	0.94	0.515	0.921	0.807	0.882	0.771	0.356
NCI-H1666	0.878	0.788	0.753	0.824	0.791	0.721	0.785	0.634	0.947	0.979	0.561	0.57	0.49	0.667	0.593	1.1	0.936	0.952	1.07	0.963
NCI-H1734	0.39	0.459	0.395	0.36	0.232	0.672	0.556	0.488	0.425	0.317	1.05	1.01	0.452	0.5	0.493	0.881	0.827	0.883	0.936	0.837
NCI-H1755	0.365	0.37	0.438	0.638	0.397	0.801	0.732	0.631	0.85	0.566	1.17	0.991	0.802	1.11	0.497	0.908	0.865	0.882	1.03	0.884
NCI-H1793	1.08	0.92	0.292	0.347	0.287	0.26	0.215	–	0.288	0.221	0.826	0.882	0.339	0.648	0.304	0.72	0.561	0.63	0.737	0.943
NCI-H1915	0.54	0.46	0.449	0.553	0.513	0.672	0.548	–	0.622	0.486	1.12	0.961	0.717	1.13	0.979	1.12	1.01	1.08	1.06	0.99
NCI-H1944	0.696	0.604	0.614	0.573	0.357	0.445	0.466	0.385	0.434	0.421	0.975	0.864	0.613	0.932	0.757	0.992	0.799	0.848	1.04	0.973
NCI-H1975	0.323	0.283	0.235	0.206	0.2	0.845	0.695	0.383	0.335	0.23	0.982	0.872	0.478	0.392	0.267	0.996	0.849	0.884	0.912	0.847
NCI-H1993	0.612	0.65	0.518	0.58	0.585	0.532	0.545	0.52	0.543	0.498	0.848	0.691	–	0.718	0.735	0.777	0.659	0.715	0.784	0.842
NCI-H2009	1.12	0.962	0.767	0.675	0.211	0.687	0.607	0.508	0.515	0.366	0.941	0.755	0.753	0.757	0.359	1.31	1.09	1.23	1.12	1
NCI-H2023	0.232	0.2	0.138	0.18	0.149	0.471	0.437	0.314	0.457	0.302	1.03	0.686	0.786	0.717	0.292	0.919	0.635	0.823	0.851	0.945
NCI-H2085	0.913	0.881	0.753	0.877	0.495	0.737	0.537	0.602	0.769	0.516	0.833	0.747	0.647	0.773	0.633	0.82	0.869	0.832	0.824	0.754
